The values that follow come from patent US8648201B2, “Aminopyridine derivatives for treating tumors and inflammatory diseases” (MERCK PATENT GmbH, priority 2009, dated 2014).

For assay [1], the target named is T1, PDK1 (Homo sapiens, UniProt O15530).
T1 construct: His6 (N)
T1 sequence (O15530 51-556 limits assumed): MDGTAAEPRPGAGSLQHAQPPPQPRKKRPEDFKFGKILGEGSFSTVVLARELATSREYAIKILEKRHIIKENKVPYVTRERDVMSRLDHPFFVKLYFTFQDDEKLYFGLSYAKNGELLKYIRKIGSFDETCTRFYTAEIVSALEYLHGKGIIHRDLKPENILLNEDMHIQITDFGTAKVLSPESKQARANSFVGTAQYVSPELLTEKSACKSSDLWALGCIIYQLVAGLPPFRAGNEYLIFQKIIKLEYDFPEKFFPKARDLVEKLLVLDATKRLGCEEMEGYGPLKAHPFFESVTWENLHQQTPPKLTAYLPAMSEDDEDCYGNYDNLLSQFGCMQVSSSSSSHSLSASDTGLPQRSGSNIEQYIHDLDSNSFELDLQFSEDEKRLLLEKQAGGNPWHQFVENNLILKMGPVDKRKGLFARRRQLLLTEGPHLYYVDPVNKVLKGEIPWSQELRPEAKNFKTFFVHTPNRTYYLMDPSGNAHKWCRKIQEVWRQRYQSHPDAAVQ
Nature of the assay: Test for the inhibition of PDK1 (flashplate, 33P-ATP). Type of assay: biochemical. The note with it: enzyme. The procedure: The experimental batches are carried out in a flashplate system with 384 wells/microtitration plate.
In each case, the PDK1 sample His6-PDK1(1-50)(3.4 nM), the PDK1 substrate biotin-bA-bA-[…] (400 nM), 4 μM ATP (with 0.2 μCi of ^33P-ATP/well) and the test substance in 50 μl of conventional experimental solution per well are incubated at 30° C. for 60 min. The test substances are employed in corresponding concentrations (if desired in a dilution series). The control is carried out without test substance. The reaction is stopped using standard methods and washed. The activity of the kinase is measured via the incorporated radioactivity in top count. In order to determine the non-specific kinase reaction (blank value), the experimental batches are carried out in the presence of 100 nM staurosporin.
The radioactivity (decompositions per minute) of the blank value (no use of test substance in the presence of staurosporin) is subtracted from all other radioactivity values. The controls (kinase activity without test substance) are set equal to 100 percent and all other radioactivity values (after subtracting the blank value) are expressed set in relation thereto (for example in % of the control).
IC50 values (50% inhibition) are determined with the aid of statistics programmes, such as, for example, RS1.

Assay [2] deals with T2, PDK1 (Homo sapiens, UniProt O15530).
T2 construct: endogenous in cells; host or cells: commercially available colon carcinoma, ovary, prostate or breast cell lines (none named)
T2 sequence (O15530 1-556): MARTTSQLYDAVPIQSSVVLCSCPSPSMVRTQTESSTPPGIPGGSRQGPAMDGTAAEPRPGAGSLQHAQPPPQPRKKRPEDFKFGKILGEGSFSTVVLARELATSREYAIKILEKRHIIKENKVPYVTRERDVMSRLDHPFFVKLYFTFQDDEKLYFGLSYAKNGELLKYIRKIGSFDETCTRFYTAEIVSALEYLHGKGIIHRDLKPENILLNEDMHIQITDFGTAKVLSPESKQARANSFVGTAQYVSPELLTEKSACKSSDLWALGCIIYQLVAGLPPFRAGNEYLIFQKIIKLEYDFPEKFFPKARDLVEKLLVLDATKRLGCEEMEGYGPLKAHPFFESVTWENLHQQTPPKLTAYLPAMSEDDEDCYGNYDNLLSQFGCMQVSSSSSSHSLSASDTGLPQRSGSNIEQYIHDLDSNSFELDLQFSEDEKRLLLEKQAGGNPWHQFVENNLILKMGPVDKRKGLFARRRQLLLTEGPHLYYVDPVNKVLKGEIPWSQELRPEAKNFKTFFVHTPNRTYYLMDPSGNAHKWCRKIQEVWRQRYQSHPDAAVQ
Nature of the assay: IC50 PDK1 (cell). Type of assay: cell-based. The protocol: The cells are sown in a suitable cell density in microtitre plates (96-well format) and the test substances are added in the form of a concentration series. After four further days of cultivation in serum-containing medium, the tumour cell proliferation/tumour cell vitality can be determined by means of an Alamar Blue test system. A defined number of cells (for example 2000 cells) per culture/well in a volume of 180 μl of culture medium are sown in microtitre plates (96 well cell-culture plates) using a multichannel pipette. The cells are subsequently cultivated in a CO2 incubator (37° C. and 10% CO2). The test substances are dissolved, for example, in DMSO and subsequently employed in corresponding concentration (if desired in a dilution series) in the cell culture medium. The dilution steps can be adapted depending on the efficiency of the active ingredients and the desired spread of the concentrations. Cell culture medium is added to the test substances in corresponding concentrations. The addition of the test substances to the cells can take place on the same day as the sowing of the cells. To this end, in each case 20 μl of substance solution from the predilution plate are added to the cultures/wells. The cells are cultivated for a further 4 days at 37° Celsius and 10% CO2. In each case, 20 μl of Alamar Blue reagent are added per well, and the microtitre plates are incubated, for example, for a further seven hours in a CO2 incubator (at 37° C. and 10% CO2). The plates are measured in a reader with a fluorescence filter at a wavelength of 540 nm. The plates can be shaken gently immediately before the measurement. The absorbance value of the medium control (no cells and test substances used) is subtracted from all other absorbance values. The controls (cells without test substance) are set equal to 100 percent, and all other absorbance values are set in relation thereto (for example in % of control): Calculation: 100*(value with cells and test substance−value of medium control)/(value with cells−value of medium control) IC50 values (50% inhibition) are determined with the aid of statistics programs, such as, for example, RS1.

For `CC1CC(=O)NN=C1c1ccc2[nH]c(-c3cc(-c4cnn(C(C)C)c4)cnc3N)nc2c1` (stereo not drawn) [Compound A11, 6-{2-[2-Amino-5-(1-isopropyl-1H-pyrazol-4-yl)pyridin-3-yl]-1H-benzimidazol-5-yl}-5-methyl-4,5-dihydro-2H-pyridazin-3-one], the IC50 is 0.001 to 0.1 µM in assay [1] and 0.1 to 10 µM in assay [2].
Taken in the same sequence, the figures for `COCCn1cc(-c2cnc(N)c(-c3nc4cc(C5=NNC(=O)CC5C)ccc4[nH]3)c2)cn1` (stereo not drawn) [Compound A12] were 0.001 to 0.1 µM and 0.1 to 10 µM.
On to `COCCCn1cc(-c2cnc(N)c(-c3nc4cc(C5=NNC(=O)CC5C)ccc4[nH]3)c2)cn1` (stereo not drawn) [Compound A13, 6-(2-{2-Amino-5-[1-(3-methoxypropyl)-1H-pyrazol-4-yl]-pyridin-3-yl}-1H-benzimidazol-5-yl)-5-methyl-4,5-dihydro-2H-pyridazin-3-one], for which the IC50 lay within 0.001 to 0.1 µM in assay [1] and 0.1 to 10 µM in assay [2].
Taken in the same sequence, the figures for `CC1CC(=O)NN=C1c1ccc2[nH]c(-c3cc(-c4cnn(CCN(C)C)c4)cnc3N)nc2c1` (stereo not drawn) [Compound A15, 6-(2-{2-Amino-5-[1-(2-dimethylaminoethyl)-1H-pyrazol-4-yl]pyridin-3-yl}-1H-benzimidazol-5-yl)-5-methyl-4,5-dihydro-2H-pyridazin-3-one] were 0.001 to 0.1 µM and greater than 10 µM.
For `CC1CC(=O)NN=C1c1ccc2[nH]c(-c3cc(-c4cnn(C5CCN(C)CC5)c4)cnc3N)nc2c1` (stereo not drawn) [Compound A16], the concentration for half-maximal inhibition (IC50) in assay [1] is 0.001 to 0.1 µM; in assay [2], greater than 10 µM.
As for `CC1CC(=O)NN=C1c1ccc2nc(-c3cc(-c4cnn(CCO)c4)cnc3N)[nH]c2c1` (stereo not drawn) [Compound A29, 6-(2-{2-amino-5-[1-(2-hydroxyethyl)-1H-pyrazol-4-yl]pyridin-3-yl}-3H-benzimidazol-5-yl)-5-methyl-4,5-dihydro-2H-pyridazin-3-one], the concentration for half-maximal inhibition (IC50) in assay [1] was 0.001 to 0.1 µM; in assay [2], greater than 10 µM.
Taken in the same sequence, the figures for `CC(C)(C)c1ccc2nc(-c3cc(-c4cnn(C5CCNCC5)c4)cnc3N)[nH]c2c1` [Compound A53] were 0.001 to 0.1 µM and 0.1 to 10 µM.
Turning to `Nc1ncc(-c2cnn(C3CCNCC3)c2)cc1-c1nc2cc(OC(F)(F)F)ccc2[nH]1` [Compound A67], the values for the concentration for half-maximal inhibition (IC50) in assay [1] and in assay [2] were 0.001 to 0.1 µM and 0.1 to 10 µM, respectively.
With `CN(C)c1ccc2nc(-c3cc(-c4cnn(C)c4)cnc3N)[nH]c2c1` [Compound A68], the half-maximal inhibitory concentration (IC50) is 0.001 to 0.1 µM in assay [1] and greater than 10 µM in assay [2].
Taken in the same sequence, the figures for `Cn1cc(-c2cnc(N)c(-c3nc4ccc(C(O)c5ccccc5)cc4[nH]3)c2)cn1` (stereo not drawn) [Compound A80] were 0.001 to 0.1 µM and greater than 10 µM.
Turning to `Cn1cc(-c2cnc(N)c(-c3nc4c(O)cccc4[nH]3)c2)cn1` [Compound A102, 2-[2-Amino-5-(1-methyl-1H-pyrazol-4-yl)pyridin-3-yl]-1H-benzimidazol-4-ol], the concentration for half-maximal inhibition (IC50) in assay [1] is 0.001 to 0.1 µM; in assay [2], 0.1 to 10 µM.
In the case of `COc1ccc2nc(-c3cc(-c4cnn(C5CCN(C)CC5)c4)cnc3N)[nH]c2c1` [Compound A106, 3-(6-Methoxy-1H-benzimidazol-2-yl)-5-[1-(1-methyl-piperidin-4-yl)-1H-pyrazol-4-yl]pyridin-2-ylamine], the half-maximal inhibitory concentration (IC50) in assay [1] is 0.001 to 0.1 µM; in assay [2] it was greater than 10 µM.

The IC50 is the midpoint of a concentration-inhibition curve. Read a low IC50 as higher potency.
